Columns and labels:
Cg3035 = target: T1, Cg3035 (Corynebacterium glutamicum, UniProt Q8NM40); test: DTNB assay of CoA release at […] nm, crude extract; type: biochemical; settings: 500 mM L-glutamate, 0.2 mM acetyl-CoA, 0.2 mM DTNB, 100 mM Tris-HCl pH 7.5, 25 C; overexpressing strain against deletion mutant; no acetyl-CoA consumption without glutamate
T1 construct: gene Cgl2740; complete ORF, untagged as far as told, overexpressed from pZ8-1 in C. glutamicum ATCC 13032 and its cg3035 deletion mutant; crude extract
T1 sequence (Q8NM40 entry or part of it): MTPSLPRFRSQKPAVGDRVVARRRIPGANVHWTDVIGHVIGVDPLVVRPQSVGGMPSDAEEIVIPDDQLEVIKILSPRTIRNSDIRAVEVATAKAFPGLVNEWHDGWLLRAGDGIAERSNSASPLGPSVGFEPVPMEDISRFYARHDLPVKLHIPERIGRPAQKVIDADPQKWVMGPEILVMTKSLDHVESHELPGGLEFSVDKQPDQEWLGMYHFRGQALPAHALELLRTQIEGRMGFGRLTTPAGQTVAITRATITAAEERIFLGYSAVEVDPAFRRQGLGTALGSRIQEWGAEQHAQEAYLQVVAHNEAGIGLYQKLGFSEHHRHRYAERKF

ArgA from E. coli = target: T2, ArgA from E. coli (Escherichia coli, UniProt P0A6C5); test: DTNB assay of CoA release at […] nm, crude extract; type: biochemical; settings: 500 mM L-glutamate, 0.2 mM acetyl-CoA, 0.2 mM DTNB, 100 mM Tris-HCl pH 7.5, 25 C; wild-type C. glutamicum background with own NAGS activity
T2 construct: structural gene overexpressed from pZ8-1 in wild-type C. glutamicum ATCC 13032; crude extract
T2 sequence (P0A6C5 1-443): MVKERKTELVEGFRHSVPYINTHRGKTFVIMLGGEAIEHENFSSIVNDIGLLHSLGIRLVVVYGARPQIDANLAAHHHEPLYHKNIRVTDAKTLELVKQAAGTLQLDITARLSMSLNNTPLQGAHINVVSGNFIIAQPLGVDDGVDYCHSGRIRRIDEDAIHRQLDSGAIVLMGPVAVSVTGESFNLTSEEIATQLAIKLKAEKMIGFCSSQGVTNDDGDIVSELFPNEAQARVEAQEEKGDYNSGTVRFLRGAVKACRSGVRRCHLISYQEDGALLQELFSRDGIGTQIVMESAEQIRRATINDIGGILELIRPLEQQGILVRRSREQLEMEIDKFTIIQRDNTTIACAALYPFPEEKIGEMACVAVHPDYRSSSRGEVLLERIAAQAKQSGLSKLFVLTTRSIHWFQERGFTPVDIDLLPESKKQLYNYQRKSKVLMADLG

## CC(=O)SCCNC(=O)CCNC(=O)[C@H](O)C(C)(C)COP(=O)(O)OP(=O)(O)OC[C@H]1O[C@@H](n2cnc3c(N)ncnc32)[C@H](O)[C@@H]1OP(=O)(O)O [acetyl-CoA]
Cg3035
  DTNB assay of CoA release at 412 nm, crude extract: the function of Cg3035 to use acetyl-CoA for acetylation of glutamate was demonstrated
ArgA from E. coli
  DTNB assay of CoA release at 412 nm, crude extract: ArgA from E. coli was found to confer additional NAGS activity
